Data set [1] relates to Pan02 tumors. Briefly: tumor growth inhibition, Pan02 tumors in C57BL/6 mice. In kind it is in vivo, mouse. The protocol: (§1) 6 to 8 week old immunocompetent or immunocompromised mice (C57BL/6/Nude) were injected subcutaneously with 2×10^6 Pan02 (mouse pancreatic cell line) or 5×10^6 Panc1 (human pancreatic cell line) tumor cells under the right shoulder. Tumor volume was measured every 2-3 days a week to monitor tumor growth. Dosing was initiated when the tumors reached about 200 mm^3. For tumor growth inhibition studies, animals were randomized and assigned to different cohorts and subjected to dosing cycles. KRAS1-formulated LNP (“KRAS/LNP”) or Placebo (scrambled KRAS dsRNAi) formulated LNP was given intravenously via lateral tail vein at a total volume of 10 ml/kg. Immuno-modulatory agents (CSF1 antibody, TGF-β inhibitor, or checkpoint inhibitors) were given intraperitoneally or orally at a volume of 10 ml/kg. Trametinib (MEK inhibitor) was given orally at a total volume of 10 ml/kg.
Mouse pancreatic cell line Pan02 was obtained from NCI, and human pancreatic cell line Panc1 cells were obtained from ATCC (Manassas, Va.) and grown in RPMI/DMEM medium supplemented with 10% FBS. Pan02 is a murine PDAC cell line with KRAS G12D mutation. Panc1 is a human PDAC cell line with KRAS […] mutation.
To see if the KRAS knockdown observed could be translated into growth inhibition, Pan02 tumors were implanted as described above, and when they reached the right sizes (e.g., about 200 mm^3), they were sorted and treated with KRAS/LNP or Placebo/LNP (cKras) at 10 mpk once a week for 3 weeks, and the tumor growth was monitored.

A further data set concerns Panc1 tumors. Briefly: tumor growth inhibition, human PDAC Panc1 tumors in nude mice. The following applies: gemcitabine 50 mpk, several rounds. The format is in vivo. As for the experimental part:
as §1
Mouse pancreatic cell line Pan02 was obtained from NCI, and human pancreatic cell line Panc1 cells were obtained from ATCC (Manassas, Va.) and grown in RPMI/DMEM medium supplemented with 10% FBS. Pan02 is a murine PDAC cell line with KRAS G12D mutation. Panc1 is a human PDAC cell line with KRAS […] mutation. […]

The subject of data set [2] is Pan02 tumors. Briefly: qPCR of tumor microenvironment and stromal activation marker mRNAs in Pan02 tumors. The format is in vivo, mouse. The protocol: To see if a single KRAS/LNP treatment would lead to modulation of the tumor microenvironment, samples from the study described in Example 3 (FIGS. 5A-B) were analyzed for certain T-cell markers (CD8 and FoxP3) and chemokines (CXCL1). FoxP3 is a marker for immunosuppressive T cells (Tregs), which play an important role in regulating or suppressing other cells of the immune system. CXCL1 is a chemokine that actively recruits suppressive molecules such as Tregs and myeloid-derived suppressor cells to the tumor microenvironment.
To see if continuous KRAS inhibition would lead to modulation of the tumor microenvironment, Pan02 tumors from the efficacy study described in Example 3 (FIG. 6) were collected 24 hours after the last dose and subjected to qPCR to measure mRNAs of immune cell markers (CD8, FoxP3), immune suppressive cytokines (CXCL1, CXCL5, and IL10), immune checkpoints (PD-L1) or stromal activation markers (TGF-0, Axin2, ROBO1, and CSF3). […] This in turn led to down-regulation of several key suppressive molecules (FoxP3, CXCL1, and CXCL5). […]
A similar study was repeated in Pan02 tumors as well. […] In this case, tumors were collected and analyzed for the mRNA markers that contribute to modulation of the tumor microenvironment and stromal activation.
Background: Real-time PCR tracks product formation cycle by cycle.

Data set [3] relates to KRAS mRNA. Briefly: in vitro screen of KRAS DsiRNA constructs, KRAS mRNA expression in MIA PaCa2 cells. The format is cell-based, human. The following applies: lipofectamine, 1 nM and 0.1 nM, 24 hours. The source says:
A nucleic acid inhibitor molecule that targets the KRAS gene (KRAS1) was constructed. First, several 25/27-mer KRAS DsiRNAs (with no modifications except for three methyls on the 3′ end of the guide strand) were selected. These constructs were then converted into a nicked-tetraloop format, using the U/GG convention as 22-mers, such that bases came off the guide strand starting from the 5′ end. These DsiRNAs were screened in human pancreatic carcinoma (MIA PaCa2) cells in vitro using lipofectamine at 1 nM and 0.1 nM concentrations of each construct to determine the potency.

Data set [4] deals with Pan02 tumors. Briefly: FoxP3 and CD8 immunohistochemistry of Pan02 tumors. The format is in vivo, mouse. The following applies: KRAS DsiRNA combined with an MEK inhibitor.
The test system of the next data set is KRAS. Briefly: mRNA analysis of KRAS in trametinib-resistant Panc1 tumors. In kind it is in vivo, human. The following applies: trametinib-resistant Panc1 tumors after KRAS/LNP 5 mpk (qdx3), compared to resistant tumors without KRAS/LNP. As for the experimental part: (§2) To see how trametinib performed in human PDAC, Panc1 tumors were implanted as described above and treated with trametinib (3 mg/kg/dose) as shown in FIG. 12A. Tumor measurements were taken throughout the entire study period to monitor the tumor growth. […] Tumors were collected before and after KRAS/LNP treatments for mRNA analysis.

The next data set concerns Cd274 (PD-L1) mRNA. Briefly: mRNA analysis of Cd274 (PD-L1) in Panc1 tumors. In kind it is in vivo, human. The settings on record: MEKi+KRAS DsiRNA treatment. The protocol:
as §2

Data set [5] concerns KRAS mRNA. Briefly: KRAS mRNA expression in mouse tumor models using MIA PaCa2 and LS411N tumor cells. In kind it is in vivo, human. The settings on record: MIA PaCa 2 and LS411N tumor models, LNP-formulated tetraloops, 3 mg/kg daily for three days, 24 hours after. The protocol:
FIG. 3B is a column scatter plot showing KRAS mRNA expression levels in a mouse tumor model using MIA PaCa2 tumor cells 24 hours after three-day daily administration of 3 mg/kg of KRAS nucleic acid inhibitor molecules as described in Example 1 and shown in FIG. 3A.
FIG. 3C is a column scatter plot showing KRAS mRNA expression levels in a mouse tumor model using MIA LS411N tumor cells 24 hours after three-day daily administration of 3 mg/kg of KRAS nucleic acid inhibitor molecules as described in Example 1 and shown in FIG. 3A.
The tetraloop sequences were tested in tumor models using MIA PaCa 2 and colon cancer LS411N cell lines. The best two from this screen (KRAS-465T and KRAS-446T) were then further modified to have a 4′-oxymethylphosphonate modification on the nucleotide at the 5′-end of the antisense strand (KRAS-465T/MOP and KRAS-446T/MOP). The sense strand of KRAS-465T/MOP contains SEQ ID NO: 13 (5′-[…]-3′), and the antisense strand of KRAS-465T/MOP contains SEQ ID NO: 14 (3′-[…]-5′, wherein underlining indicates a 4′-oxymethylphosphonate modification). The sense strand of KRAS-446T/MOP contains SEQ ID NO: 15 (5′-[…]-3′), and the antisense strand of KRAS-446T/MOP contains SEQ ID NO: 16 (3′-[…]-5′, wherein underlining indicates a 4′-oxymethylphosphonate modification).

Where [6] appears, read: Pan02 tumors, gemcitabine treatment without KRAS/LNP.
[7] abbreviates: Pan02 tumors, continuous KRAS inhibition (10 mpk weekly x3), 24 hours after last dose.
Setting [8] is: Pan02 tumors, single KRAS/LNP treatment 10 mg/kg, 24 hours after last dose.

As for `Nc1ccn([C@@H]2O[C@H](CO)[C@@H](O)C2(F)F)c(=O)n1` [gemcitabine, reference compound], in the data set with Pan02 tumors [1] (continuous gemcitabine treatment), the “tumor growth, response to treatment” value was “became resistant”. In the data set on Panc1 tumors, the “tumor growth, response to treatment” value is “responded nicely at the beginning, they became resistant after several rounds of treatment”. Also, the “CXCL1 mRNA levels” value in the data set with Pan02 tumors [2] (Pan02 tumors treated with gemcitabine until resistant) is recorded as “increased”. Besides, in the data set on Pan02 tumors [2] (setting [6]), the “Axin2 mRNA (stromal activation marker)” value is “lower”, the “ROBO1 mRNA (stromal activation marker)” value is “lower” and the “TGF-β mRNA (stromal activation marker)” value is “lower”.

In the case of `Cc1cccc(-c2nn3c(c2-c2ccnc4ccc(C(N)=O)cc24)CCC3)n1` [galunisertib], in the data set on Pan02 tumors [1] (orally 75 mpk (BID×2/cycle) for 2 weeks, vs Vehicle), the tumor growth inhibition entry is “about 50%”.

Regarding “KRAS-465: 25/27-mer KRAS DsiRNA; sense strand SEQ ID NO: 3, antisense strand SEQ ID NO: 4 (sense CUAAAUCAUUUGAAGAUAUUCACCA; antisense UGGUGAAUAUCUUCAAAUGAUUUAGUA; Dicer-substrate siRNA, chemical modification pattern not given here)”, in the data set with KRAS mRNA [3], the “KRAS mRNA expression, ranking of potency in the in vitro screen” value (“KRAS mRNA expression, ranking of potency” for short) is “best three”.

As for “KRAS1: tetraloop construct with 4′-oxymethylphosphonate at nucleotide 1 of the antisense strand; sense SEQ ID NO: 13, antisense SEQ ID NO: 14 (sense CUAAAUCAUUUGAAGAUAUAGCAGCCGAAAGGCUGC; antisense NAUAUCUUCAAAUGAUUUAGGG; tetraloop DsiRNA, 4'-oxymethylphosphonate on antisense 5'-terminal U, other modifications not given here)”, in the data set with Pan02 tumors [1] (10 mpk once a week for 3 weeks, i.v., vs Placebo/LNP), the tumor growth result is reported as “complete growth inhibition”. Further, in the data set with Pan02 tumors [4], the “CD8 expression by immunohistochemistry” value was “increased” and the “FoxP3 expression by immunohistochemistry” value is listed as “reduced”. Also, the KRAS knockdown in the data set on KRAS is listed as 40-50%. In the data set with Pan02 tumors [2] (setting [7]), the “Axin2 mRNA (stromal activation marker)” value is recorded as “slightly increased”, the “CSF3 mRNA (stromal activation marker)” value is given as “slightly increased”, the “CXCL1 mRNA” value was “down-regulation” and the “CXCL5 mRNA” value was “down-regulation”. For the same compound, in the data set on Pan02 tumors [2] (setting [7]), the “Cd8 mRNA” value is recorded as “increased”, the “Cd274 (PD-L1) mRNA” value is reported as “increased”, the “FoxP3 mRNA” value is “down-regulation” and the “ROBO1 mRNA (stromal activation marker)” value was “slightly increased”. The “TGF-0 mRNA (stromal activation marker)” value in the data set with Pan02 tumors [2] (setting [7]) was “slightly increased”. Also, in the data set with Pan02 tumors [2] (setting [8]), the “CD8 mRNA expression level” value is given as “unchanged”, the “CXCL1 mRNA expression level” value is recorded as “significantly decreased” and the “FoxP3 mRNA expression level” value was “significantly decreased”. Further, the “CXCL1 mRNA levels” value with Pan02 tumors [2] (gemcitabine-resistant Pan02 tumors, single KRAS1 treatment) is on record as “not brought down to baseline”. Also, the “Cd274 (PD-L1) mRNA levels” value in the data set on Cd274 (PD-L1) mRNA was “increased”.

Consider “KRAS-446: 25/27-mer KRAS DsiRNA; sense strand SEQ ID NO: 5, antisense strand SEQ ID NO: 6 (sense GUAUUUGCCAUAAAUAAUACUAAAT; antisense AUUUAGUAUUAUUUAUGGCAAAUACAC; Dicer-substrate siRNA, chemical modification pattern not given here)”, for which the “KRAS mRNA expression, ranking of potency” value in the data set on KRAS mRNA [3] is “best three”.

With “KRAS-446T: KRAS tetraloop construct; sense strand SEQ ID NO: 15, antisense strand SEQ ID NO: 19 (sense GUAUUUGCCAUAAAUAAUAAGCAGCCGAAAGGCUGC; antisense UUAUUAUUUAUGGCAAAUACGG; sense strand forms tetraloop hairpin, modification pattern not given here)”, in the data set with KRAS mRNA [5], the “KRAS mRNA expression, ranking in the tumor model screen” value was “best two”.

Take “KRAS-465T: KRAS tetraloop construct; sense strand SEQ ID NO: 13, antisense strand SEQ ID NO: 18 (sense CUAAAUCAUUUGAAGAUAUAGCAGCCGAAAGGCUGC; antisense UAUAUCUUCAAAUGAUUUAGGG; sense strand forms tetraloop hairpin, modification pattern not given here)”: in the data set on KRAS mRNA [5], the “KRAS mRNA expression, ranking in the tumor model screen” value is on record as “best two”.

Take “KRAS-194: 25/27-mer KRAS DsiRNA; sense strand SEQ ID NO: 1, antisense strand SEQ ID NO: 2 (sense GGCCUGCUGAAAAUGACUGAAUATA; antisense UAUAUUCAGUCAUUUUCAGCAGGCCUC; Dicer-substrate siRNA, chemical modification pattern not given here)”: the “KRAS mRNA expression, ranking of potency” value in the data set on KRAS mRNA [3] was “best three”.
